This experiment addresses T1, Protein deacetylase HDAC6 (Homo sapiens, UniProt Q9UBN7).
T1 sequence (Q9UBN7 whole entry): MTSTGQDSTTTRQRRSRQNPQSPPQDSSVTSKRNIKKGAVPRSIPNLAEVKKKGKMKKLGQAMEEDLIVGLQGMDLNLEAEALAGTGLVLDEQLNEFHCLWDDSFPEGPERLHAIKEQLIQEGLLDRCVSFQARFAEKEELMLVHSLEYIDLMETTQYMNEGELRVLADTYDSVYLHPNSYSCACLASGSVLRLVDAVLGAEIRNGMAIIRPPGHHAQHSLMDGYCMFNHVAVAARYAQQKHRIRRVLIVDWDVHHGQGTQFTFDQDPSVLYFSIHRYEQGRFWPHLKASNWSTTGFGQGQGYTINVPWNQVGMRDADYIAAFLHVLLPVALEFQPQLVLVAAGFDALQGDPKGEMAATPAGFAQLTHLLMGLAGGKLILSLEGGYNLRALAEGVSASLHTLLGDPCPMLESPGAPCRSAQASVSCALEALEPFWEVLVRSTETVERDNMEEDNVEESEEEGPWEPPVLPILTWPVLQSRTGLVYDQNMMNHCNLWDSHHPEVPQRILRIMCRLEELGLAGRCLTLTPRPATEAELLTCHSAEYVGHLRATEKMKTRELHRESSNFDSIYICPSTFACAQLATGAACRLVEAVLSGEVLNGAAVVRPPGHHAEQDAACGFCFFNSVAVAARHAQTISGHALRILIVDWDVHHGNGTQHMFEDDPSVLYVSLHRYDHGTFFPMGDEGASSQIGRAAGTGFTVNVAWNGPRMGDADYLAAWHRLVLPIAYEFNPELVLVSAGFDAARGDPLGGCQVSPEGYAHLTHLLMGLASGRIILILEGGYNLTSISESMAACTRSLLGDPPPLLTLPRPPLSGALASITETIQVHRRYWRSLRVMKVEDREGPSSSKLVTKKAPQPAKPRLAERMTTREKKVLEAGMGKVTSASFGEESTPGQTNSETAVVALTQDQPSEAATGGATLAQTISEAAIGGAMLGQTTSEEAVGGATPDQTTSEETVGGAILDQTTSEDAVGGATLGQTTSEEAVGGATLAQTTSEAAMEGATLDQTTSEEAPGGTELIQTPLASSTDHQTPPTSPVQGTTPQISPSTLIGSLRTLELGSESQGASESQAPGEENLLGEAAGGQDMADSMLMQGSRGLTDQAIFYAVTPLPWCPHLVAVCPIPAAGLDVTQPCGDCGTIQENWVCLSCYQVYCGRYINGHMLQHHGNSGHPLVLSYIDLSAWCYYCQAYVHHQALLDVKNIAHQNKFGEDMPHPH
The experiment is described as follows: Inhibition of recombinant human HDAC6 using Ac-peptide as substrate preincubated for 15 mins followed by substrate addition and measured after 60 mins.

The values that follow come from ChEMBL document CHEMBL6096636 (Bioorg Med Chem, 2024).

One may read the IC50 as the concentration needed to halve the response being measured.

As to `Cc1ccc2c(CN[C@H]3CC[C@@H](Nc4ncc(C(=O)NO)cn4)CC3)cn(C)c2c1.Cl`, the IC50 came to 60 nM.
